For data set [1], the target named is T1, PqsR (Pseudomonas aeruginosa, UniProt Q9I4X0). Briefly: STD-NMR titration ([…] to […] DHQ, […] SUMO-PqsR-C87); EMSA also gave an apparent Kd of […]. The data set is classed as binding. Also noted: gene mvfR. Background: Mobility shift assays separate free from complexed probe on a gel.
Target sequence in this assay (Q9I4X0 87-332): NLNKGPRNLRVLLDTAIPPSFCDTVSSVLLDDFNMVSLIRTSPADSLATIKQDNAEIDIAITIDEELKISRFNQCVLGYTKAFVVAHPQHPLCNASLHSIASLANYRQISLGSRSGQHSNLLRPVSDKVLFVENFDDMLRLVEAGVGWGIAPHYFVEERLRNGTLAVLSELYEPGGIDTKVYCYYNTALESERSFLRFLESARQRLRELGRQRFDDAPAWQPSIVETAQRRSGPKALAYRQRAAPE
Data set [2] has as its target T1, PqsR. Briefly: EMSA with lysate of E. coli Rosetta expressing His-SUMO-PqsR and biotinylated pqsA promoter DNA, semi-quantitative apparent Kd. The class given is biochemical. More on the design: gene mvfR; recombinant PqsR, N-terminal His-tagged SUMO fusion.
Target sequence in this assay (Q9I4X0 whole entry, the tested form may be a part): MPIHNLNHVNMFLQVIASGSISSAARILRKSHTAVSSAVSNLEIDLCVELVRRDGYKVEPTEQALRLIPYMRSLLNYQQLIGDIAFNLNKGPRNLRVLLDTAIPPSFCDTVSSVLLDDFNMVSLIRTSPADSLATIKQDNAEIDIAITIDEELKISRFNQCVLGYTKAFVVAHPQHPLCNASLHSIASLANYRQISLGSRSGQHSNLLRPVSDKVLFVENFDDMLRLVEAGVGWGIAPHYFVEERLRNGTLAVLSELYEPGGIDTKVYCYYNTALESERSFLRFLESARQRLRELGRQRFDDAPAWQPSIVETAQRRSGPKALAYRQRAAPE
The test system of data set [3] is His-SUMO-PqsR (Pseudomonas aeruginosa (PAO1?)). Briefly: EMSA.

As for `Oc1cc(O)c2ccccc2n1` [DHQ, 2,4-dihydroxyquinoline], the Kd on PqsR [1] is ~450 nM.

On to `CCCCCCCc1[nH]c2ccccc2c(=O)c1O` [PQS, 2-heptyl-3-hydroxy-4-quinolone], for which, on PqsR [2], the Kd amounted to 33 nM.

For Bio-pqsA (pqsA' promoter probe), the binding signal (fraction free probe) in data set [3] came to 0.0488.

(Values after article PMC4715436, “The role of 2,4-dihydroxyquinoline (DHQ) in Pseudomonas aeruginosa pathogenicity” (PeerJ, 2016).)
